{"source": "PubChem BioAssay AID1963976", "about": "(Molecular Pharmacology Branch, DTP, NCI, 2024)", "test_system": "435261-313-R-J1-PDC tumor spheroid viability", "experiment": "Anticancer human tumor 435261-313-R-J1-PDC patient-derived colon adenocarcinoma cell line growth inhibition [PI3K]", "conditions": "spheroids with HUVEC and MSC; for viability, T/C: stronger effect = lower value", "procedure,_shortened": "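High-throughput combination screen: PI3K inhibitors crossed with targeted small molecules on complex spheroids of tumor cells, HUVEC and MSCs at 37 degrees C, 5% CO2. Top concentration was at or near clinical Cmax (otherwise 10 microM), with half-log decrements.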"}
{"compound": "C=CC(=O)N1CCN(c2nc(=O)n(-c3c(C)ccnc3C(C)C)c3nc(-c4c(O)cccc4F)c(F)cc23)C(C)C1", "note": "(stereo not drawn) + CC(Nc1ncnc2nc[nH]c12)c1cc2cccc(Cl)c2c(=O)n1-c1ccccc1;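 also: spheroids exposed to compounds for 7 days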", "values": [{"measurement": "IC50", "setting": "curve of first compound, second compound 0.0316 µM", "result": "> 10", "unit": "µM"}, {"measurement": "IC50", "setting": "curve of first compound, second compound 0.1 µM", "result": "> 10", "unit": "µM"}, {"measurement": "IC50", "setting": "curve of first compound, second compound 0.316 µM", "result": "> 10", "unit": "µM"}, {"measurement": "IC50", "setting": "curve of first compound, second compound 1 µM", "result": "> 10", "unit": "µM"}, {"measurement": "IC50", "setting": "curve of first compound, second compound 3.16 µM", "result": "> 10", "unit": "µM"}, {"measurement": "IC50", "setting": "curve of first compound, second compound 10 µM", "result": "> 10", "unit": "µM"}, {"measurement": "viability, T/C", "setting": "second compound 0.0316 µM, first compound 0.0316 µM", "result": 67.3, "unit": "%"}, {"measurement": "viability, T/C", "setting": "second compound 0.0316 µM, first compound 0.1 µM", "result": 84.8, "unit": "%"}, {"measurement": "viability, T/C", "setting": "second compound 0.0316 µM, first compound 0.316 µM", "result": 103, "unit": "%"}, {"measurement": "viability, T/C", "setting": "second compound 0.0316 µM, first compound 1 µM", "result": 117, "unit": "%"}, {"measurement": "viability, T/C", "setting": "second compound 0.0316 µM, first compound 3.16 µM", "result": 116, "unit": "%"}, {"measurement": "viability, T/C", "setting": "second compound 0.0316 µM, first compound 10 µM", "result": 103, "unit": "%"}, {"measurement": "viability, T/C", "setting": "second compound 0.1 µM, first compound 0.0316 µM", "result": 78.4, "unit": "%"}, {"measurement": "viability, T/C", "setting": "second compound 0.1 µM, first compound 0.1 µM", "result": 79.9, "unit": "%"}, {"measurement": "viability, T/C", "setting": "second compound 0.1 µM, first compound 0.316 µM", "result": 103, "unit": "%"}, {"measurement": "viability, T/C", "setting": "second compound 0.1 µM, first compound 1 µM", "result": 84.3, "unit": "%"}, {"measurement": "viability, T/C", "setting": "second compound 0.1 µM, first compound 3.16 µM", "result": 109, "unit": "%"}, {"measurement": "viability, T/C", "setting": "second compound 0.1 µM, first compound 10 µM", "result": 103, "unit": "%"}, {"measurement": "viability, T/C", "setting": "second compound 0.316 µM, first compound 0.0316 µM", "result": 92, "unit": "%"}, {"measurement": "viability, T/C", "setting": "second compound 0.316 µM, first compound 0.1 µM", "result": 95, "unit": "%"}, {"measurement": "viability, T/C", "setting": "second compound 0.316 µM, first compound 0.316 µM", "result": 85.4, "unit": "%"}, {"measurement": "viability, T/C", "setting": "second compound 0.316 µM, first compound 1 µM", "result": 94.1, "unit": "%"}, {"measurement": "viability, T/C", "setting": "second compound 0.316 µM, first compound 3.16 µM", "result": 122, "unit": "%"}, {"measurement": "viability, T/C", "setting": "second compound 0.316 µM, first compound 10 µM", "result": 108, "unit": "%"}, {"measurement": "viability, T/C", "setting": "second compound 1 µM, first compound 0.0316 µM", "result": 76.3, "unit": "%"}, {"measurement": "viability, T/C", "setting": "second compound 1 µM, first compound 0.1 µM", "result": 77, "unit": "%"}, {"measurement": "viability, T/C", "setting": "second compound 1 µM, first compound 0.316 µM", "result": 102, "unit": "%"}, {"measurement": "viability, T/C", "setting": "second compound 1 µM, first compound 1 µM", "result": 91.9, "unit": "%"}, {"measurement": "viability, T/C", "setting": "second compound 1 µM, first compound 3.16 µM", "result": 130, "unit": "%"}, {"measurement": "viability, T/C", "setting": "second compound 1 µM, first compound 10 µM", "result": 109, "unit": "%"}, {"measurement": "viability, T/C", "setting": "second compound 3.16 µM, first compound 0.0316 µM", "result": 53.7, "unit": "%"}, {"measurement": "viability, T/C", "setting": "second compound 3.16 µM, first compound 0.1 µM", "result": 68.8, "unit": "%"}, {"measurement": "viability, T/C", "setting": "second compound 3.16 µM, first compound 0.316 µM", "result": 89.2, "unit": "%"}, {"measurement": "viability, T/C", "setting": "second compound 3.16 µM, first compound 1 µM", "result": 106, "unit": "%"}, {"measurement": "viability, T/C", "setting": "second compound 3.16 µM, first compound 3.16 µM", "result": 87.9, "unit": "%"}, {"measurement": "viability, T/C", "setting": "second compound 3.16 µM, first compound 10 µM", "result": 79.5, "unit": "%"}, {"measurement": "viability, T/C", "setting": "second compound 10 µM, first compound 0.0316 µM", "result": 49.3, "unit": "%"}, {"measurement": "viability, T/C", "setting": "second compound 10 µM, first compound 0.1 µM", "result": 49.6, "unit": "%"}, {"measurement": "viability, T/C", "setting": "second compound 10 µM, first compound 0.316 µM", "result": 54.6, "unit": "%"}, {"measurement": "viability, T/C", "setting": "second compound 10 µM, first compound 1 µM", "result": 55.1, "unit": "%"}, {"measurement": "viability, T/C", "setting": "second compound 10 µM, first compound 3.16 µM", "result": 74.9, "unit": "%"}, {"measurement": "viability, T/C", "setting": "second compound 10 µM, first compound 10 µM", "result": 66.4, "unit": "%"}]}
{"compound": "Cc1nc(NC(=O)N2CCCC2C(N)=O)sc1-c1ccnc(C(C)(C)C(F)(F)F)c1", "note": "(stereo not drawn)", "values": [{"measurement": "viability, T/C", "setting": "compound 0.1 µM", "result": "82.1% [middle of 6 runs]"}, {"measurement": "viability, T/C", "setting": "compound 0.316 µM", "result": "64.4% [middle of 6 runs]"}, {"measurement": "viability, T/C", "setting": "compound 1 µM", "result": "27.3% [middle of 6 runs]"}, {"measurement": "viability, T/C", "setting": "compound 3.16 µM", "result": "17.2% [middle of 6 runs]"}, {"measurement": "viability, T/C", "setting": "compound 10 µM", "result": "7% [middle of 6 runs]"}, {"measurement": "IC50", "setting": "compound alone, run of 06/12/2023", "result": "447 nM [middle of 6 runs]"}]}
